Results published in patent publication US20240383886A1, “Protein Tyrosine Phosphatase Degraders and Methods of Use Thereof” (CALICO LIFE SCIENCES LLC, priority 2019, published 2024).

Tests used:
PTPN2 [1] = target: T1, PTPN2 (Homo sapiens, UniProt P17706); experiment: HiBiT-Degradation 293T.109 PTPN2 (Nano-Glo HiBiT Lytic Assay); format: cell-based; conditions: 293T.109 (HiBiT-PTPN2) cells, 24.0 hours
T1 construct: expressed in transfected cells; host or cells: 293T (293T.109 HiBiT-PTPN2 line; parental 293T WT from ATCC)
T1 sequence (P17706 1-415): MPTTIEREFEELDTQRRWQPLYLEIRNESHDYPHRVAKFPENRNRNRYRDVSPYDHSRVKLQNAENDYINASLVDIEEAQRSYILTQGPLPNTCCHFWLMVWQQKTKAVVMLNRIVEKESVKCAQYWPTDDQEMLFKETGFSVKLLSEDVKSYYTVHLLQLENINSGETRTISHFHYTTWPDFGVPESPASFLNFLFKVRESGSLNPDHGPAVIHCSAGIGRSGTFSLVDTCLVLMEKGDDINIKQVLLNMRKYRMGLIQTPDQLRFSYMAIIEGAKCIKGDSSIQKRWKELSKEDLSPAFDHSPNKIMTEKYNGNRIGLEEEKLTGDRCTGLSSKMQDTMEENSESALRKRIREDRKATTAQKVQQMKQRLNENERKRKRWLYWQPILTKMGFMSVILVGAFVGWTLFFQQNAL
In short: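 Luminescence from a lytic HiBiT read gave PTPN2 levels after 24 h compound exposure at 37° C. Compounds were tested at 11 half-log points from a 10 μM top concentration, in duplicate. The cells were 293T engineered with an N-terminal HiBiT–PTPN2 fusion, plated at 5000 per well, with untreated wells as negative control and no-reagent wells as positive control.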

PTPN2 [2] = experiment: HiBiT-Degradation B16F10.4 PTPN2; format: cell-based; conditions: B16F10.4 cells, 24.0 hours

DC50 (PTPN2 [1]) | DC50 (PTPN2 [2]) | Structure (SMILES)
200 to 1000 nM | ≥ 1000 nM | O=C1CCC(Nc2ccc(C3CCN(CC(=O)Nc4ccc5c(F)c(N6CC(=O)NS6(=O)=O)c(O)cc5c4)CC3)cc2Oc2ccccc2)C(=O)N1 (centres unmarked) [Example 101, 2-[4-[4-[(2,6-dioxo-3-piperidyl)amino]-3-phenoxy-phenyl]-1-piperidyl]-N-[5-fluoro-7-hydroxy-6-(1,1,4-trioxo-1,2,5-thiadiazolidin-2-yl)-2-naphthyl]acetamide]
200 to 1000 nM | 200 to 1000 nM | Cn1c(=O)n(C2CCC(=O)NC2=O)c2ccc(C3=CCC(CNC(=O)c4ccc5c(F)c(N6CC(=O)NS6(=O)=O)c(O)cc5c4)CC3)cc21 (centres unmarked) [Example 102]
50 to 200 nM | 50 to 200 nM | Cn1c(=O)n(C2CCC(=O)NC2=O)c2ccc(Nc3ccc(C(=O)Nc4ccc5c(F)c(N6CC(=O)NS6(=O)=O)c(O)cc5c4)cc3)cc21 (centres unmarked) [Example 104, 4-[[1-(2,6-dioxo-3-piperidyl)-3-methyl-2-oxo-benzimidazol-5-yl]amino]-N-[5-fluoro-7-hydroxy-6-(1,1,4-trioxo-1,2,5-thiadiazolidin-2-yl)-2-naphthyl]benzamide]
200 to 1000 nM | ≥ 1000 nM | CN(c1ccc(C2CCN(CC(=O)Nc3ccc4c(F)c(N5CC(=O)NS5(=O)=O)c(O)cc4c3)CC2)cc1)C1CCC(=O)NC1=O (centres unmarked) [Example 108, 2-[4-[4-[(2,6-dioxo-3-piperidyl)-methyl-amino]phenyl]-1-piperidyl]-N-[5-fluoro-7-hydroxy-6-(1,1,4-trioxo-1,2,5-thiadiazolidin-2-yl)-2-naphthyl]acetamide]
10 to 50 nM | 50 to 200 nM | Cn1c(=O)n(C2CCC(=O)NC2=O)c2ccc(C3CCN(CC(=O)N4CC(Oc5ccc6cc(O)c(N7CC(=O)NS7(=O)=O)c(F)c6c5)C4)CC3)cc21 (centres unmarked) [Example 112, 3-[5-[1-[2-[3-[[8-fluoro-6-hydroxy-7-(1,1,4-trioxo-1,2,5-thiadiazolidin-2-yl)-2-naphthyl]oxy]azetidin-1-yl]-2-oxo-ethyl]-4-piperidyl]-3-methyl-2-oxo-benzimidazol-1-yl]piperidine-2,6-dione]
200 to 1000 nM | 200 to 1000 nM | O=C1CCC(Nc2ccc(C3CCN(CC(=O)Nc4ccc5c(F)c(N6CC(=O)NS6(=O)=O)c(O)cc5c4)CC3(F)F)cc2)C(=O)N1 (centres unmarked) [Example 113, 2-[4-[4-[(2,6-dioxo-3-piperidyl)amino]phenyl]-3,3-difluoro-1-piperidyl]-N-[5-fluoro-7-hydroxy-6-(1,1,4-trioxo-1,2,5-thiadiazolidin-2-yl)-2-naphthyl]acetamide]
50 to 200 nM | 50 to 200 nM | Cn1nc(C2CCC(=O)NC2=O)c2ccc(C3CCN(CC(=O)Nc4ccc5c(F)c(N6CC(=O)NS6(=O)=O)c(O)cc5c4)CC3(F)F)cc21 (centres unmarked) [Example 114, N-(6-(1,1-dioxido-4-oxo-1,2,5-thiadiazolidin-2-yl)-5-fluoro-7-hydroxynaphthalen-2-yl)-2-(4-(3-(2,6-dioxopiperidin-3-yl)-1-methyl-1H-indazol-6-yl)-3,3-difluoropiperidin-1-yl)acetamide]
200 to 1000 nM | 200 to 1000 nM | Cn1c(=O)n(C2CCC(=O)NC2=O)c2ccc(C3CCN(CC(=O)N4CC(c5ccc6c(F)c(N7CC(=O)NS7(=O)=O)c(O)cc6c5)C4)CC3)cc21 (centres unmarked) [Example 115, 3-(5-(1-(2-(3-(6-(1,1-dioxido-4-oxo-1,2,5-thiadiazolidin-2-yl)-5-fluoro-7-hydroxynaphthalen-2-yl)azetidin-1-yl)-2-oxoethyl)piperidin-4-yl)-3-methyl-2-oxo-2,3-dihydro-1H-benzo[d]imidazol-1-yl)piperidine-2,6-dione]
50 to 200 nM | 50 to 200 nM | Cn1c(=O)n(C2CCC(=O)NC2=O)c2ccc(-c3ccc(CCC(=O)Nc4ccc5c(F)c(N6CC(=O)NS6(=O)=O)c(O)cc5c4)cc3)cc21 (centres unmarked) [Example 116, N-(6-(1,1-dioxido-4-oxo-1,2,5-thiadiazolidin-2-yl)-5-fluoro-7-hydroxynaphthalen-2-yl)-3-(4-(1-(2,6-dioxopiperidin-3-yl)-3-methyl-2-oxo-2,3-dihydro-1H-benzo[d]imidazol-5-yl)phenyl)propanamide]
10 to 50 nM | 50 to 200 nM | Cn1nc(C2CCC(=O)NC2=O)c2ccc(C3CCN(C4CC(C(=O)Nc5ccc6c(F)c(N7CC(=O)NS7(=O)=O)c(O)cc6c5)C4)CC3(F)F)cc21 (centres unmarked) [Example 117, N-(6-(1,1-dioxido-4-oxo-1,2,5-thiadiazolidin-2-yl)-5-fluoro-7-hydroxynaphthalen-2-yl)-3-(4-(3-(2,6-dioxopiperidin-3-yl)-1-methyl-1H-indazol-6-yl)-3,3-difluoropiperidin-1-yl)cyclobutanecarboxamide]
50 to 200 nM | 10 to 50 nM | Cn1c(=O)n(C2CCC(=O)NC2=O)c2ccc(-c3ccc(CC(=O)Nc4ccc5c(F)c(N6CC(=O)NS6(=O)=O)c(O)cc5c4)cc3F)cc21 (centres unmarked) [Example 118, N-(6-(1,1-dioxido-4-oxo-1,2,5-thiadiazolidin-2-yl)-5-fluoro-7-hydroxynaphthalen-2-yl)-2-(4-(1-(2,6-dioxopiperidin-3-yl)-3-methyl-2-oxo-2,3-dihydro-1H-benzo[d]imidazol-5-yl)-3-fluorophenyl)acetamide]

The remaining lines, values behind:

Structure (SMILES) | DC50 (PTPN2 [1]) | DC50 (PTPN2 [2])
Cn1c(=O)n(C2CCC(=O)NC2=O)c2ccc(N3CCC(CC(=O)N4CC=C(c5ccc6cc(O)c(N7CC(=O)NS7(=O)=O)c(F)c6c5)C4)CC3)cc21 (centres unmarked) [Example 103, 3-[5-[4-[2-[3-[8-fluoro-6-hydroxy-7-(1,1,4-trioxo-1,2,5-thiadiazolidin-2-yl)-2-naphthyl]-2,5-dihydropyrrol-1-yl]-2-oxo-ethyl]-1-piperidyl]-3-methyl-2-oxo-benzimidazol-1-yl]piperidine-2,6-dione] | 200 to 1000 nM | 50 to 200 nM
Cn1c(=O)n(C2CCC(=O)NC2=O)c2ccc(Nc3ccc(CC(=O)Nc4ccc5c(F)c(N6CC(=O)NS6(=O)=O)c(O)cc5c4)cc3)cc21 (centres unmarked) [Example 105, 2-[4-[[1-(2,6-dioxo-3-piperidyl)-3-methyl-2-oxo-benzimidazol-5-yl]amino]phenyl]-N-[5-fluoro-7-hydroxy-6-(1,1,4-trioxo-1,2,5-thiadiazolidin-2-yl)-2-naphthyl]acetamide] | 10 to 50 nM | 10 to 50 nM
Cn1c(=O)n(C2CCC(=O)NC2=O)c2ccc(-c3ccc(CNC(=O)c4ccc5c(F)c(N6CC(=O)NS6(=O)=O)c(O)cc5c4)cc3)cc21 (centres unmarked) [Example 106] | 200 to 1000 nM | 200 to 1000 nM
Cn1c(=O)n(C2CCC(=O)NC2=O)c2ccc(C3CCN(CCS(=O)(=O)N4CC=C(c5ccc6cc(O)c(N7CC(=O)NS7(=O)=O)c(F)c6c5)C4)CC3)cc21 (centres unmarked) [Example 107, 3-(5-(1-(2-((3-(7-(1,1-dioxido-4-oxo-1,2,5-thiadiazolidin-2-yl)-8-fluoro-6-hydroxynaphthalen-2-yl)-2,5-dihydro-1H-pyrrol-1-yl)sulfonyl)ethyl)piperidin-4-yl)-3-methyl-2-oxo-2,3-dihydro-1H-benzo[d]imidazol-1-yl)piperidine-2,6-dione] | 50 to 200 nM | 50 to 200 nM
Cn1c(=O)n(C2CCC(=O)NC2=O)c2ccc(N3CCC(C4CCN(C(=O)COc5ccc6cc(O)c(N7CC(=O)NS7(=O)=O)c(F)c6c5)CC4)CC3)cc21 (centres unmarked) [Example 109, 3-[5-[4-[1-[2-[[8-fluoro-6-hydroxy-7-(1,1,4-trioxo-1,2,5-thiadiazolidin-2-yl)-2-naphthyl]oxy]acetyl]-4-piperidyl]-1-piperidyl]-3-methyl-2-oxo-benzimidazol-1-yl]piperidine-2,6-dione] | 200 to 1000 nM | 50 to 200 nM
Cn1c(=O)n(C2CCC(=O)NC2=O)c2ccc(N3CCN(CCn4cc(-c5ccc6cc(O)c(N7CC(=O)NS7(=O)=O)c(F)c6c5)cn4)CC3)cc21 (centres unmarked) [Example 110, 3-[5-[4-[2-[4-[8-fluoro-6-hydroxy-7-(1,1,4-trioxo-1,2,5-thiadiazolidin-2-yl)-2-naphthyl]pyrazol-1-yl]ethyl]piperazin-1-yl]-3-methyl-2-oxo-benzimidazol-1-yl]piperidine-2,6-dione] | 10 to 50 nM | 50 to 200 nM
O=C(CCCCOc1ccc2cc(O)c(N3CC(=O)NS3(=O)=O)c(F)c2c1)NCCCc1ccc2c3c(cccc13)C(=O)N2C1CCC(=O)NC1=O (centres unmarked) [Example 111, N-[3-[1-(2,6-dioxo-3-piperidyl)-2-oxo-benzo[cd]indol-6-yl]propyl]-5-[[8-fluoro-6-hydroxy-7-(1,1,4-trioxo-1,2,5-thiadiazolidin-2-yl)-2-naphthyl]oxy]pentanamide] | 10 to 50 nM | 50 to 200 nM
Cn1c(=O)n(C2CCC(=O)NC2=O)c2ccc(C3CCN(CC(=O)N4CC=C(c5ccc6cc(O)c(N7CC(=O)NS7(=O)=O)c(F)c6c5)CC4)CC3)cc21 (centres unmarked) [Example 119, 3-[5-[1-[2-[4-[8-fluoro-6-hydroxy-7-(1,1,4-trioxo-1,2,5-thiadiazolidin-2-yl)-2-naphthyl]-3,6-dihydro-2H-pyridin-1-yl]-2-oxo-ethyl]-4-piperidyl]-3-methyl-2-oxo-benzimidazol-1-yl]piperidine-2,6-dione] | 10 to 50 nM | 50 to 200 nM
